From paper PMC2932959 (Journal of medicinal chemistry, 2010)

Columns and labels:
NET = assay type: binding, rat; conditions: selectivity ratio for SERT over NET
DAT = DAT (Rattus norvegicus, UniProt P23977); assay type: binding
DAT, sequence (P23977 whole entry): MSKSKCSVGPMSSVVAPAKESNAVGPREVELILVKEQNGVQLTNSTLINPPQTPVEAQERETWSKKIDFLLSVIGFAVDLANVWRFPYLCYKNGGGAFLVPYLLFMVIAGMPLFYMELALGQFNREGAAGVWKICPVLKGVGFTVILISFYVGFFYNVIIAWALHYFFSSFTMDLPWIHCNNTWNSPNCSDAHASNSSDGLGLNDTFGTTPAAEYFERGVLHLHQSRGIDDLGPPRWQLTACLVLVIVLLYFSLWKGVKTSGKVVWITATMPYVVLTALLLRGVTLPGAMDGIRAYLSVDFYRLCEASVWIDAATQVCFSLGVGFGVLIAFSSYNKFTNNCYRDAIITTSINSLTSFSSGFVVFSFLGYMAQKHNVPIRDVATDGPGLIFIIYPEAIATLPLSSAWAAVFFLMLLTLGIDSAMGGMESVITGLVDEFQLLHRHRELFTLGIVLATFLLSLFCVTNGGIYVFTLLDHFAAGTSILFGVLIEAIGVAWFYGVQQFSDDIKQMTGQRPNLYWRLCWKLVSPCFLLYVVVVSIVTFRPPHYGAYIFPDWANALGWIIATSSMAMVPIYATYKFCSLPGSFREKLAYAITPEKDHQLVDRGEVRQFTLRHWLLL

Row | Compound | Ki(NET)/Ki (SERT) (NET) | Ki (DAT) [µM] | Ki(DAT)/Ki (SERT) (DAT; selectivity ratio for SERT over DAT)
1 | CN(C)CCCC1(c2ccc(F)cc2)OCc2cc(Br)ccc21 (stereo not shown) [Compound 5, 3-(5-bromo-1-(4-fluorophenyl)-1,3-dihydroisobenzofuran-1-yl)-N,N-dimethylpropan-1-amine] | >10,000 | 1.65 ± 0.112 | 1590
2 | COc1cccc(-c2ccc3c(c2)COC3(CCCN(C)C)c2ccc(F)cc2)c1 (stereo not shown) [Compound 11, 3-(1-(4-Fluorophenyl)-5-(3’-methoxyphenyl)-1,3-dihydroisobenzofuran-1-yl)-N,N-dimethylpropan-1-amine] | 284 | – | –
3 | CN(C)CCCC1(c2ccc(F)cc2)OCc2cc(-c3cc(F)cc(F)c3)ccc21.O=C(O)C(=O)O (stereo not shown) [Compound 13, 3-(5-(3,5-Difluorophenyl)-1-(4-fluorophenyl)-1,3-dihydroisobenzofuran-1-yl)-N,N-dimethylpropan-1-amine oxalate] | 19 | – | –
4 | CN(C)CCCC1(c2ccc(F)cc2)OCc2cc(CCc3ccccc3)ccc21 (stereo not shown) [Compound 14, 3-(1-(4-Fluorophenyl)-5-phenethyl-1,3-dihydroisobenzofuran-1-yl)-N,N-dimethylpropan-1-amine] | 122 | – | –
5 | CN(C)CCCC1(c2ccc(F)cc2)OCc2cc(-c3cccc(F)c3)ccc21 (stereo not shown) [Compound 15, 3-(5-(3-Fluorophenyl)-1-(4-fluorophenyl)-1,3-dihydroisobenzofuran-1-yl)-N,N-dimethylpropan-1-amine] | 193 | – | –
